Data reported in publication PMC7416749 (Journal of genetics and genomics = Yi chuan xue bao, 2020).

Tests used:
[1] = tested on: dP75 IBD-containing C-terminus region (residues 209–445); assay: Isothermal titration calorimetry; assay type: binding, Drosophila; details: ITC, 20 °C, mutant peptides 984–1004 compared with wild type
[2] = biological target: dP75 IBD-containing C-terminus region (residues 209–445) (Drosophila melanogaster); assay: ITC

Molecule | effect of substitution in Jil-1 peptide 984–1004 on binding to dP75 (in words) [1] | Kd [2]
F989A: Jil-1 peptide 984–1004 with F989A substitution (EVQADAYGFDENAPPLPLPEE; UniProt Q9V3I5 984-1004, looked up, variant F989A) | dramatically reduced the binding | 
F992A: Jil-1 peptide 984–1004 with F992A substitution (EVQADFYGADENAPPLPLPEE; UniProt Q9V3I5 984-1004, looked up, variant F992A) | dramatically reduced the binding | 
G991V: Jil-1 peptide 984–1004 with G991V substitution (EVQADFYVFDENAPPLPLPEE; UniProt Q9V3I5 984-1004, looked up, variant G991V) | dramatically reduced the binding | 
Jil-1 peptide from the proximal site (…; residues 984–1004) |  | 0.8 µM
KREENFYGFSK [Jil-1 peptide at the distal site (…; residues 1102–1112)] |  | 120 µM
